We go through 6 compounds from patent US6365173B1, “Stereocomplex polymeric carriers for drug delivery” (Efrat Biopolymers Ltd., priority 1999, dated 2002).

Holding throughout (assay type): physicochemical
Series [1] can be described thus: TRH release from D-PLA complex powder in phosphate buffer. The settings on record: D-PLA complex powder (10% w/w TRH) dispersed in phosphate buffer pH7.4 at 37° C. The procedure:
TRH is a tripeptide with the following structure: pL-Glu-L-His-L-Pro_NH2. 250 mg of D-PLA (Mw=30,000 or Mw=6,000) were mixed with 25 mg (10% w/w) of TRH in 10 ml acetonitrile at 60° C. The solution became clear after 15 minutes and remained clear for 72 hours, at which point precipitate formed. The solution was very turbid, but could not be filtered at room temperature due to the fine particle size of the precipitate. After cooling at 0° C. over night, the precipitate was filtered. The TRH concentration in the acetonitrile solution and in the powder was analyzed as described above using the Lowry method for peptide analysis. Over 90% of the drug was determined to be in the powder and a negligible amount of the drug was found in the acetonitrile solution. When dispersed in phosphate buffer pH7.4 at 37° C., TRH was constantly released for 6 weeks.

Series [2] in a line: Release of lidocaine from compression molded stereocomplex devices in buffer. The note with it: compression molded D-PLA/L-PLA stereocomplex (200 mg, Mw=30,000) with lidocaine (20 mg); buffer solution pH 7.4 at 37° C. The procedure: A fine powder of the nano-discs stereocomplexed of D-PLA and L-PLA and their complexes which were of flat shapes of discs, rods, and triangles, as analyzed in Example 3, provided a unique opportunity for the preparation of drug delivery devices. Devices were prepared by compression molding of these nanoscale structures with drugs.
The disintegration time and the release of the incorporated drug in buffer solutions was slower than the compression molded devices of the corresponding regular polymers. The regular polymer powders are difficult to obtain and their properties are erratic, since they are prepared by precipitation in non-aqueous solvent and grinding at a temperature below the glass transition temperature which provides irregular particle size and shape. The particles formed by stereocomplex formation are of well-defined flat crystallites that are easy to compression mold.
In a typical experiment, disc (10×2 mm) and rod shape (4×10 mm) devices were prepared by mixing the stereocomplex powder of D-PLA and L-PLA (200 mg, Mw=30,000) with lidocaine (20 mg) and compression molding into discs of […] size.
Lidocaine was released constantly for 30 days when placed in buffer solution p H7.4 at 37° C.

Series [3] can be described thus: In vitro release of leuprolide from D-PLA/L-PLA complex powder. The note with it: in 40 days; 4 mg leuprolide acetate in D-PLA/L-PLA complex powder; phosphate buffer pH 7.4 at 37° C. The procedure:
Preparation of complex: Solutions of leuprolide acetate in acetonitrile (4 mg) and D-PLA, (58 mg, Mw=100,000) and L-PLA (38 mg, Mw=30,000) in acetonitrile were mixed together (total 5 ml) and allowed to stir for 3 days at 50° C. The precipitated powder was isolated by filtration to yield 98 mg of 1 micron size porous particles. No leuprolide remained in the acetonitrile solution.
In vitro release was conducted in phosphate buffer pH 7.4 at 37° C. Leuprolide concentration was determined by HPLC (acetonitrile:water, C18 column, 1 ml/min). About 37% of the drug was released constantly in 40 days.

Series [4] can be described thus: LHRH release from PLA stereocomplex powders in phosphate buffer (syringe method, HPLC). The settings on record: nanosize complexes of LHRH with D-PLA, precipitated in hot acetonitrile. The procedure: The analysis of LHRH was conducted using the following HPLC method: Mobile phase comprised 30% acetonitrile, 70% TEAP (triethylammoniumphosphate) buffer […] pH-3. Column comprised Lichrosphere RP-18 […] (MERCK); Detector. UV 278 nm and flow rate at 1 ml/min.
All samples were filtered through a 2μ filter. One drop of phosphoric acid was added to the sample solutions before injection. The retention time for LHRH was 6.5 minutes and a calibration curve was generated (r2=0.999).
Since the powder of the LHRH in the stereocomplex is very thin, all the attempts to sink it at the release medium failed. The release was conducted in the following way: 100 mg of the powder in 5 ml phosphate buffer were added to a 10 ml syringe. The edge of the syringe was sealed and constantly shaken at a rate of 150 RPM and a temperature of 37° C. At each interval of time, the syringe was inverted so that the solid floated at the top of the buffer and all of the buffer was pushed out of the syringe in a dropwise fashion. Using this technique, the powders of LHRH in PLA stereocomplex (formulations a-e) were analyzed against a control blank of PLA stereocomplex (no drug).

Series [5] in a line: Ibuprofen release from D-PLA-HSA stereocomplex tablets in phosphate buffer. The settings on record: ibuprofen (100 mg) with D-PLA-HSA or D-PLA-L-PLA-HSA (500 mg), 300 mg tablets; phosphate buffer at physiological pH 37° C. The method, then:
The precipitate of D-PLA-HSA prepared as described in Example 9 was also used as a matrix carrier for the delivery of small drugs. In a typical experiment, a fine powder of ibuprofen (100 mg) was mixed with the D-PLA-HSA or D-PLA-L-PLA-HSA (500 mg) and the powder was compressed into tablets of 300 mg each. The tablets released the ibuprofen for one week when placed in phosphate buffer at physiological pH 37° C. In similar experiments, other proteins were stereocomplexed with PLA enantiomers including fibrin, fibrinogen, collagen and gelatin.

Series [6] can be described thus: MTX release from PLA stereocomplex tablets in phosphate buffer. The note with it: first 10 days; 10 ml pH 7.4 phosphate buffer at 37° C., shaking 150 RPM. The procedure: Formulations: MTX was incorporated in a stereocomplex of D-PLA/L-PLA (Mw=30,000) prepared by precipitation in acetonitrile. The drug in the form of a powder was mixed with the stereocomplex in the form of a powder, and the mixture compression molded to form tablets. Alternatively, the stereocomplex and MTX were dissolved in dichloromethane, and solvent evaporated to yield a fine powder. For comparison, a solution of random amorphic DL-PLA (Mw=30,000) and MTX was evaporated to dryness to yield a clear flexible and strong yellow film which could be formed into a powder through the use of liquid nitrogen.
In a typical experiment, 300 mg of PLA 1:1 stereocomplex was dissolved in dichloromethane. MTX (5% w/w) was added to the solution, and the mixture was vortexed for two minutes. The solvent was evaporated with a nitrogen stream, to yield a very fine powder. […] Discs were prepared by compression molding of the MTX—stereocomplex power (100 mg) using a stainless steel mold (internal diameter 10 mm) and a Carver Press at 10 tons. Alternatively, 300 mg of PLA 1:1 stereocomplex fine powder (average particle size 2.2 microns was mixed with MTX (150 mg) and the uniform powder was compressed into tablets of 200 mg each.
MTX release was conducted in 10 ml of pH 7.4 phosphate buffer at 37° C. with constant shaking of 150 RPM. […]

For the compound pL-Glu-L-His-L-Pro_NH2 [TRH], in series [1], the “time over which TRH was constantly released” value is given as 6 weeks. `CCN(CC)CC(=O)Nc1c(C)cccc1C` [Lidocaine, lidocaine]: in series [2], the “time over which lidocaine was released constantly” value is recorded as 30 days. For `CCNC(=O)[C@@H]1CCCN1C(=O)[C@H](CCCNC(=N)N)NC(=O)[C@H](CC(C)C)NC(=O)[C@@H](CC(C)C)NC(=O)[C@H](Cc1ccc(O)cc1)NC(=O)[C@H](CO)NC(=O)[C@H](Cc1c[nH]c2ccccc12)NC(=O)[C@H](Cc1c[nH]cn1)NC(=O)[C@@H]1CCC(=O)N1` [Leuprolide, leuprolide acetate], the “drug (leuprolide) released constantly” value in series [3] is on record as “About 37%”. In the case of “Leutinizing Hormone Releasing Hormone [LHRH]”, in series [4], the “time over which LHRH was constantly released from nanospheres” value was “over 3 weeks”. Turning to `CC(C)Cc1ccc(C(C)C(=O)O)cc1` (stereo not drawn) [ibuprofen], the “time over which the tablets released ibuprofen” value in series [5] was “one”.

Take `CN(Cc1cnc2nc(N)nc(N)c2n1)c1ccc(C(=O)N[C@@H](CCC(=O)O)C(=O)O)cc1` [MTX, Methotrexate]: in series [6], the “MTX constantly released from the PLA stereocomplex” value was “About 30%”.
